Measured values from ChEMBL document CHEMBL3580578, “Optimization of 5-(2,6-dichlorophenyl)-3-hydroxy-2-mercaptocyclohex-2-enones as potent inhibitors of human lactate dehydrogenase” (Bioorg Med Chem Lett, 2014).
Converted amounts (≈) assume the structure as drawn.

Key:
[1] = molecular target: L-lactate dehydrogenase A chain (Homo sapiens, UniProt P00338); test: Inhibition of human LDH-A by biochemical assay
[2] = molecular target: T1, Malate dehydrogenase, cytoplasmic (Homo sapiens, UniProt P40925); test: Inhibition of malate dehydrogenase 1 (unknown origin)
T1 sequence (P40925 whole entry): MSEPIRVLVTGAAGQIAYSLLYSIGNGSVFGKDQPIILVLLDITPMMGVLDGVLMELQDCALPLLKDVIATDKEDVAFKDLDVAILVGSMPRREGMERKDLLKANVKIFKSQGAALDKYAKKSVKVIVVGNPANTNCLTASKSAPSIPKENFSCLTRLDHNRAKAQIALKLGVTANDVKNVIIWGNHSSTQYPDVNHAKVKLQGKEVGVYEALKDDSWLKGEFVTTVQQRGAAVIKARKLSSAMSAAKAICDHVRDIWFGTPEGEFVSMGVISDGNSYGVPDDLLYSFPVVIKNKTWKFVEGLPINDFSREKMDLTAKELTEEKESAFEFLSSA

[3] = molecular target: T2, Malate dehydrogenase, mitochondrial (Homo sapiens, UniProt P40926); test: Inhibition of malate dehydrogenase 2 (unknown origin)
T2 sequence (P40926 whole entry): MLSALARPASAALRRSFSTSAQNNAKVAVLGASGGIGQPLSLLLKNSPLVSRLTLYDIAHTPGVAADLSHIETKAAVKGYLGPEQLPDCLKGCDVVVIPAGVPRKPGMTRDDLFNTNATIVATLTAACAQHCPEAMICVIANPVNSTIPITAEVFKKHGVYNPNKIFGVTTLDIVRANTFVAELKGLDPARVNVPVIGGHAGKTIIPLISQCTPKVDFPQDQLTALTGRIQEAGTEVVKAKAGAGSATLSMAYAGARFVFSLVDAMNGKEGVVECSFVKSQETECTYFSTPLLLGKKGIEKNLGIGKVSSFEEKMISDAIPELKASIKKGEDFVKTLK

[4] = molecular target: L-lactate dehydrogenase B chain (Homo sapiens, UniProt P07195)
Description: Inhibition of LDH-B (unknown origin)

[5] = Plasma protein binding in human; format: ADME, cell-free; settings: read-out: PPB
[6] = Apparent permeability from apical to basolateral side in MDCK cells; format: ADME, cell-based, Canis lupus familiaris; settings: dog
[7] = Kinetic solubility of the compound in PBS buffer at pH 7.4
[8] = Stability in mouse plasma assessed as parent compound remaining at 37 degC after 1 hr; format: ADME, cell-free; settings: read-out: Stability

L-lactate dehydrogenase B chain, sequence (P07195 whole entry): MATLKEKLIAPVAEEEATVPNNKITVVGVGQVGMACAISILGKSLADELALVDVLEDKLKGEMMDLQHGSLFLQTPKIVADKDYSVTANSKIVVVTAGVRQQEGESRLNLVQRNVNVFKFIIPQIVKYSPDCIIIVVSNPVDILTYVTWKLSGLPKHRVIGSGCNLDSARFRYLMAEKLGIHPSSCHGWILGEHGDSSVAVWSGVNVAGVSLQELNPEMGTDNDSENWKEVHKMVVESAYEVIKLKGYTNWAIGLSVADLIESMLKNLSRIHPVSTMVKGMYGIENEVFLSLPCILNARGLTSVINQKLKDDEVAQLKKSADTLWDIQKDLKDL

IC50 [1] | IC50 [2] | IC50 [3] | IC50 [4] | fraction unbound [5] | Papp A→B [6] | solubility kinetic [7] | remaining at 1 h [8] | SMILES
0.06 µM | ≥ 10 µM | ≥ 10 µM | – | – | – | – | – | O=C1CC(c2c(Cl)ccc(-c3ccccc3Cl)c2Cl)CC(O)=C1Sc1ccccc1Cl (configuration not stated)
0.46 µM | ≥ 10 µM | ≥ 10 µM | 2.4 µM | – | – | – | – | COc1ccc(C#N)c(SC2=C(O)CC(c3c(Cl)ccc(OC(C)C)c3Cl)CC2=O)c1 (configuration not stated)
0.108 µM | ≥ 10 µM | ≥ 10 µM | – | – | – | – | – | O=C1CC(c2c(Cl)ccc(-c3cccnc3)c2Cl)CC(O)=C1Sc1ccccc1Cl (configuration not stated)
1.1 µM | ≥ 10 µM | ≥ 10 µM | – | – | – | – | – | O=C1CC(c2c(Cl)ccc(-c3cncnc3)c2Cl)CC(O)=C1Sc1ccccc1Cl (configuration not stated)
3.5 µM | ≥ 10 µM | ≥ 10 µM | – | – | – | – | – | O=C(O)Cc1ccc(Cl)c(SC2=C(O)CC(c3c(Cl)cccc3Cl)CC2=O)c1 (configuration not stated)
0.03 µM | ≥ 10 µM | ≥ 10 µM | – | < 0.001 | 14 ×10⁻⁶ cm/s | 49 µM (≈ 25.9 µg/mL) | – | COc1ccc(Cl)c(SC2=C(O)CC(c3c(Cl)ccc(NC4CCOCC4)c3Cl)CC2=O)c1 (configuration not stated)
0.1 µM | ≥ 10 µM | ≥ 10 µM | – | – | – | – | – | O=C1CC(c2c(Cl)ccc(-c3ccccc3)c2Cl)CC(O)=C1Sc1ccccc1Cl (configuration not stated)
0.3 µM | ≥ 10 µM | ≥ 10 µM | – | – | – | – | – | O=C(Cc1ccc(Cl)c(SC2=C(O)CC(c3c(Cl)cccc3Cl)CC2=O)c1)NCCO (configuration not stated)
0.06 µM | ≥ 10 µM | ≥ 10 µM | – | – | – | – | – | O=C1CC(c2c(Cl)ccc(NC3CCOCC3)c2Cl)CC(O)=C1Sc1ccccc1Cl (configuration not stated)
– | ≥ 10 µM | ≥ 10 µM | – | – | – | – | – | O=C1CC(c2c(Cl)cccc2Cl)CC(O)=C1Sc1ccccc1Cl (configuration not stated)
0.09 µM | ≥ 10 µM | ≥ 10 µM | – | – | – | – | – | CC(C)Oc1ccc(Cl)c(C2CC(=O)C(Sc3ccccc3Cl)=C(O)C2)c1Cl (configuration not stated)
0.015 µM | ≥ 10 µM | ≥ 10 µM | 0.14 µM | < 0.001 | 1.1 ×10⁻⁶ cm/s | 50 µM (≈ 23.2 µg/mL) | – | CC(C)Oc1ccc(Cl)c(C2CC(=O)C(Sc3cc(O)ccc3C#N)=C(O)C2)c1Cl (configuration not stated)
0.23 µM | ≥ 10 µM | ≥ 10 µM | – | – | – | – | – | O=C1CC(c2c(Cl)ccc(N3CCN(C4CC4)CC3)c2Cl)CC(O)=C1Sc1ccccc1Cl (configuration not stated)
0.37 µM | ≥ 10 µM | ≥ 10 µM | – | – | – | – | – | COc1ccc(Cl)c(SC2=C(O)CC(c3c(Cl)cccc3Cl)CC2=O)c1 (configuration not stated)
0.13 µM | ≥ 10 µM | ≥ 10 µM | – | – | – | – | – | CCOC(=O)Cc1ccc(Cl)c(SC2=C(O)CC(c3c(Cl)cccc3Cl)CC2=O)c1 (configuration not stated)
0.64 µM | ≥ 10 µM | ≥ 10 µM | – | – | – | – | – | Nc1ccc(Cl)c(SC2=C(O)CC(c3c(Cl)cccc3Cl)CC2=O)c1 (configuration not stated)
0.085 µM | ≥ 10 µM | ≥ 10 µM | – | – | – | – | – | O=C1CC(c2c(Cl)ccc(-c3ccncc3)c2Cl)CC(O)=C1Sc1ccccc1Cl (configuration not stated)

IC50 [1] | IC50 [2] | IC50 [3] | IC50 [4] | fraction unbound [5] | Papp A→B [6] | solubility kinetic [7] | remaining at 1 h [8] | SMILES
2.6 µM | ≥ 10 µM | ≥ 10 µM | – | – | – | – | – | O=C1CC(c2c(Cl)cc(N3CCOCC3)cc2Cl)CC(O)=C1Sc1ccccc1Cl (configuration not stated)
0.24 µM | ≥ 10 µM | ≥ 10 µM | – | – | – | – | – | O=C1CC(c2c(Cl)ccc(N3CCOCC3)c2Cl)CC(O)=C1Sc1ccccc1Cl (configuration not stated)
0.12 µM | ≥ 10 µM | ≥ 10 µM | – | – | – | – | – | CC(C)OC(=O)Cc1ccc(Cl)c(SC2=C(O)CC(c3c(Cl)cccc3Cl)CC2=O)c1 (configuration not stated)
0.025 µM | ≥ 10 µM | ≥ 10 µM | – | – | – | – | – | COc1ccc(Cl)c(SC2=C(O)CC(c3c(Cl)ccc(OC(C)C)c3Cl)CC2=O)c1 (configuration not stated)
0.09 µM | ≥ 10 µM | ≥ 10 µM | – | – | – | – | – | C[C@H](OC(=O)Cc1ccc(Cl)c(SC2=C(O)CC(c3c(Cl)cccc3Cl)CC2=O)c1)c1ccccc1 (some centres not stated)
0.035 µM | ≥ 10 µM | ≥ 10 µM | – | – | – | – | – | COc1ccc(Cl)c(SC2=C(O)CC(c3c(Cl)ccc(-c4ccncc4)c3Cl)CC2=O)c1 (configuration not stated)
0.17 µM | ≥ 10 µM | ≥ 10 µM | – | – | – | – | – | O=C1CC(c2c(Cl)ccc(N3CCNCC3)c2Cl)CC(O)=C1Sc1ccccc1Cl (configuration not stated)
0.04 µM | ≥ 10 µM | ≥ 10 µM | – | – | – | – | – | COC(=O)Cc1ccc(Cl)c(SC2=C(O)CC(c3c(Cl)cccc3Cl)CC2=O)c1 (configuration not stated)
0.03 µM | ≥ 10 µM | ≥ 10 µM | – | – | – | – | – | CCOC(=O)Cc1ccc(Cl)c(SC2=C(O)CC(c3c(Cl)ccc(-c4ccccc4)c3Cl)CC2=O)c1 (configuration not stated)
1.8 µM | ≥ 10 µM | ≥ 10 µM | – | – | – | – | – | CNC(=O)Cc1ccc(Cl)c(SC2=C(O)CC(c3c(Cl)cccc3Cl)CC2=O)c1 (configuration not stated)
0.12 µM | ≥ 10 µM | ≥ 10 µM | – | – | – | – | – | O=C1CC(c2c(Cl)cccc2Cl)CC(O)=C1Sc1cc(O)ccc1Cl (configuration not stated)
0.03 µM | ≥ 10 µM | ≥ 10 µM | – | – | – | – | – | CC(C)Oc1ccc(Cl)c(C2CC(=O)C(Sc3cc(O)ccc3Cl)=C(O)C2)c1Cl (configuration not stated)
0.006 µM | ≥ 10 µM | ≥ 10 µM | – | – | 10.6 ×10⁻⁶ cm/s | 61 µM (≈ 34.3 µg/mL) | 72% | C[C@@H](OC(=O)Cc1ccc(Cl)c(SC2=C(O)CC(c3c(Cl)cccc3Cl)CC2=O)c1)c1ccccc1 (some centres not stated)
10 µM | ≥ 10 µM | ≥ 10 µM | – | – | – | – | – | CN(C)C(=O)Cc1ccc(Cl)c(SC2=C(O)CC(c3c(Cl)cccc3Cl)CC2=O)c1 (configuration not stated)
0.17 µM | ≥ 10 µM | ≥ 10 µM | – | – | – | – | – | CNc1ccc(Cl)c(SC2=C(O)CC(c3c(Cl)cccc3Cl)CC2=O)c1 (configuration not stated)
0.37 µM | ≥ 10 µM | ≥ 10 µM | – | – | – | – | – | O=C1CC(c2c(Cl)ccc(N3CCN(C4COC4)CC3)c2Cl)CC(O)=C1Sc1ccccc1Cl (configuration not stated)
0.1 µM | ≥ 10 µM | ≥ 10 µM | – | – | – | – | – | CC(=O)N1CCN(c2ccc(Cl)c(C3CC(=O)C(Sc4ccccc4Cl)=C(O)C3)c2Cl)CC1 (configuration not stated)
